# Target: CDK2 (either cyclin A or E-dependent) (Homo sapiens, UniProt P24941)
# Assay: biochemical
# Description: BACULOVIRUS CONSTRUCTIONS: Cyclins A and E were cloned into pFASTBAC (Invitrogen) by PCR, with the addition of a GluTAG sequence (EYMPME) at the amino-terminal end to allow purification on anti-GluTAG affinity columns. […] CDK2 was also cloned into pFASTBAC by PCR, with the addition of a haemaglutinin epitope tag at the carboxy-terminal end ([…]).
# ENZYME PRODUCTION: Recombinant baculoviruses expressing cyclins A, E and CDK2 were infected into SF9 cells at a multiplicity of infection (MOI) of 5, for 48 hrs. Cells were harvested by centrifugation at 1000 RPM for 10 minutes. Cyclin-containing (E or A) pellets were combined with CDK2 containing cell pellets and lysed on ice for 30 minutes in five times the pellet volume of lysis buffer containing 50 mM Tris pH 8.0, 0.5% NP40, 1 mM DTT and protease/phosphatase inhibitors (Roche Diagnostics GmbH, Mannheim, Germany). Mixtures were stirred for 30-60 minutes to promote cyclin-CDK2 complex formation. Mixed lysates were then spun down at 15000 RPM for 10 minutes and the supernatant retained. 5 ml of anti-GluTAG beads (for one liter of SF9 cells) were then used to capture cyclin-CDK2 complexes. Bound beads were washed three times in lysis buffer. Proteins were competitively eluted with lysis buffer containing 100-200 ug/mL of the GluTAG peptide. Eluate was dialyzed overnight in 2 liters of kinase buffer containing 50 mM Tris pH 8.0, 1 mM DTT, 10 mM MgCl2, 100 uM sodium orthovanadate and 20% glycerol. Enzyme was stored in aliquots at −70° C.
# IN VITRO KINASE ASSAY: CDK2 kinase assays (either cyclin A or E-dependent) were performed in low protein binding 96-well plates (Corning Inc, Corning, N.Y.). Enzyme was diluted to a final concentration of 50 μg/ml in kinase buffer containing 50 mM Tris pH 8.0, 10 mM MgCl2, 1 mM DTT, and 0.1 mM sodium orthovanadate. The substrate used in these reactions was a biotinylated peptide derived from Histone H1 (from Amersham, UK). The substrate was thawed on ice and diluted to 2 μM in kinase buffer. Compounds were diluted in 10% DMSO to desirable concentrations. For each kinase reaction, 20 μl of the 50 μg/ml enzyme solution (1 μg of enzyme) and 20 μl of the […] substrate solution were mixed, then combined with 10 μl of diluted compound in each well for testing. […] The reaction was allowed to run for 1 hour at room temperature. The reaction was stopped by adding 200 μl of stop buffer containing 0.1% Triton X-100, 1 mM ATP, 5 mM EDTA, and 5 mg/ml streptavidine coated SPA beads (from Amersham, UK) for 15 minutes. The SPA beads were then captured onto a 96-well GF/B filter plate (Packard/Perkin Elmer Life Sciences) using a Filtermate universal harvester (Packard/Perkin Elmer Life Sciences.). Non-specific signals were eliminated by washing the beads twice with 2M NaCl then twice with 2 M NaCl with 1% phosphoric acid. The radioactive signal was then measured using a TopCount 96 well liquid scintillation counter (from Packard/Perkin Elmer Life Sciences).
# IC50 DETERMINATION: Dose-response curves were plotted from inhibition data generated, each in duplicate, from 8 point serial dilutions of inhibitory compounds. Concentration of compound was plotted against % kinase activity, calculated by CPM of treated samples divided by CPM of untreated samples. To generate IC50 values, the dose-response curves were then fitted to a standard sigmoidal curve and IC50 values were derived by nonlinear regression analysis. These kinase activities were generated by using cyclin A or cyclin E using the above-described assay.
row,Structure (SMILES),IC50
1,Nc1cc(C2CCCNC2)nc2c(-c3ccc(CO)cc3)cnn12 (stereo not shown),1400 nM
2,Nc1cc(C2CCCNC2)nc2c(-c3cncs3)cnn12 (stereo not shown),210 nM
3,CC(C)Cc1ncc(-c2cnn3c(N)cc(C4CCCNC4)nc23)s1 (stereo not shown),1300 nM
4,Nc1cc(C2CCCNC2)nc2c(-c3ncon3)cnn12 (stereo not shown),2500 nM
5,N#CCc1ccc(-c2cnn3c(N)cc(C4CCCNC4)nc23)cc1 (stereo not shown),12000 nM
6,Nc1cc(C2CCCNC2)nc2c(-c3cscn3)cnn12 (stereo not shown),10000 nM
7,Nc1c(Br)c(C2CCCNC2)nc2c(-c3ccc4c(c3)OCO4)cnn12 (stereo not shown),570 nM
8,N#Cc1ccc(-c2cnn3c(N)c(Br)c(C4CCCNC4)nc23)cc1 (stereo not shown),240 nM
9,Nc1c(Br)c(C2CCCNC2)nc2c(-c3cncs3)cnn12 (stereo not shown),96 nM
10,Nc1c(Br)c(C2CCCNC2)nc2c(-c3cscn3)cnn12 (stereo not shown),5800 nM
11,Cn1cc(-c2cnn3c(N)c(Br)c(N4CC[C@H](N)C4)nc23)cn1,1200 nM
12,Nc1c(Br)c(C2CCCNC2)nc2c(-c3cnccn3)cnn12 (stereo not shown),4700 nM
13,Cn1cc(-c2cnn3c(NC4CCCC4)cc(C4CCCNC4)nc23)cn1 (stereo not shown),25000 nM
14,Cn1cc(-c2cnn3c(NCc4ccccc4)cc(C4CCCNC4)nc23)cn1 (stereo not shown),31000 nM
15,CCNc1c(Br)c(C2CCCNC2)nc2c(-c3cnn(C)c3)cnn12 (stereo not shown),5700 nM
16,Nc1cc(C2CCCNC2)nc2c(-c3cnoc3)cnn12 (stereo not shown),790 nM
17,Nc1cc(C2CCCNC2)nc2c(-c3cnn(CCO)c3)cnn12 (stereo not shown),4300 nM
18,CC(C)n1cc(-c2cnn3c(N)cc(C4CCCNC4)nc23)cn1 (stereo not shown),8300 nM
19,Cn1cc(-c2cnn3c(N)c(I)c(C4CCCNC4)nc23)cn1 (stereo not shown),20 nM
20,N#Cc1ccc(-c2cnn3c(N)cc(C4CCCNC4)nc23)cn1 (stereo not shown),2300 nM
21,N#Cc1ccc(-c2cnn3c(N)c(Br)c(C4CCCNC4)nc23)cn1 (stereo not shown),880 nM
22,Nc1c(Br)c(C2CCCNC2)nc2c(-c3cnoc3)cnn12 (stereo not shown),160 nM
23,Nc1c(Br)c(C2CCCNC2)nc2c(-c3cnn(CCO)c3)cnn12 (stereo not shown),200 nM
24,N#Cc1cncc(-c2cnn3c(N)c(Br)c(C4CCCNC4)nc23)c1 (stereo not shown),5800 nM
25,CCn1cc(-c2cnn3c(N)c(Br)c(C4CCCNC4)nc23)cn1 (stereo not shown),410 nM

row,Structure (SMILES),IC50
1,CN(C)C(=O)Cn1cc(-c2cnn3c(N)c(Br)c(C4CCCNC4)nc23)cn1 (stereo not shown),1400 nM
2,Cn1cc(-c2cnn3c(N)c(Br)c(C4CCCN(CCO)C4)nc23)cn1 (stereo not shown),1750 nM
3,N#Cc1cc(-c2cnn3c(N)c(Br)c(C4CCCNC4)nc23)co1 (stereo not shown),140 nM
4,N#Cc1cc(-c2cnn3c(N)c(Cl)c(C4CCCNC4)nc23)co1 (stereo not shown),210 nM
5,Nc1cc(C2CCCNC2)nc2c(-c3coc(C=NO)c3)cnn12 (stereo not shown),40 nM
6,Nc1cc(C2CCCNC2)nc2c(-c3cn[nH]c3)cnn12 (stereo not shown),1500 nM
7,COC(=O)[C@@H]1CC[C@H](c2cc(N)n3ncc(-c4cnn(C)c4)c3n2)CN1,14000 nM
8,Cn1cc(-c2cnn3c(N)c(Br)c(CC4CNCCO4)nc23)cn1 (stereo not shown),6100 nM
9,Cn1cc(-c2cnn3c(N)c(Br)c(CC4CNCCN4)nc23)cn1 (stereo not shown),5700 nM
10,Cn1cc(-c2cnn3c(N)cc(C4(F)CCCNC4)nc23)cn1 (stereo not shown),6000 nM
11,Cn1cc(-c2cnn3c(N)c(Br)c(C4CCCCN4)nc23)cn1 (stereo not shown),28000 nM
12,Cn1cc(-c2cnn3c(N)c(Br)c(C4CNCCNC4)nc23)cn1,720 nM
13,Cn1cc(-c2cnn3c(N)cc([C@H]4CC[C@@H](CO)NC4)nc23)cn1,12000 nM
14,C/C(=N\O)[C@@H]1CC[C@H](c2nc3c(-c4cnn(C)c4)cnn3c(N)c2Br)CN1,520 nM
15,Cn1cc(-c2cnn3c(N)c(Br)c([C@H]4CCC[C@@H](N)C4)nc23)cn1,440 nM
16,Cn1cc(-c2cnn3c(N)cc([C@@H]4CC[C@@H](N)C4)nc23)cn1,5600 nM
17,Cn1cc(-c2cnn3c(N)cc([C@@H]4CC[C@H](N)C4)nc23)cn1,3700 nM
18,Cn1cc(-c2cnn3c(N)c(Br)c([C@@H]4CC[C@@H](N)C4)nc23)cn1,120 nM
19,Cn1cc(-c2cnn3c(N)c(Br)c([C@@H]4CC[C@H](N)C4)nc23)cn1,240 nM
20,CC(N)CCc1nc2c(-c3cnn(C)c3)cnn2c(N)c1Br (stereo not shown),1200 nM
21,CC(C)N1CCNCC(c2nc3c(-c4cnn(C)c4)cnn3c(N)c2Br)C1 (stereo not shown),2600 nM
22,CC(=O)N1CCNCC(c2nc3c(-c4cnn(C)c4)cnn3c(N)c2Br)C1 (stereo not shown),2600 nM
23,Cn1cc(-c2cnn3c(N)c(Br)c(C4CNCCN(S(C)(=O)=O)C4)nc23)cn1 (stereo not shown),3100 nM
24,Cn1cc(-c2cnn3c(N)c(Br)c(CCNCc4ccccc4)nc23)cn1,3700 nM

# From US7605155B2, “Substituted pyrazolo[1,5-a]pyrimidines as protein kinase inhibitors” (priority 2002, dated 2009)
